Here are results for 17 compounds from ChEMBL document CHEMBL1149379, “Pyrrolo(iso)quinoline derivatives as 5-HT(2C) receptor agonists” (Bioorg Med Chem Lett, 2006).

For assay [1], the target named is T1, 5-hydroxytryptamine receptor 2C (Homo sapiens, UniProt P28335).
T1 sequence (P28335 whole entry): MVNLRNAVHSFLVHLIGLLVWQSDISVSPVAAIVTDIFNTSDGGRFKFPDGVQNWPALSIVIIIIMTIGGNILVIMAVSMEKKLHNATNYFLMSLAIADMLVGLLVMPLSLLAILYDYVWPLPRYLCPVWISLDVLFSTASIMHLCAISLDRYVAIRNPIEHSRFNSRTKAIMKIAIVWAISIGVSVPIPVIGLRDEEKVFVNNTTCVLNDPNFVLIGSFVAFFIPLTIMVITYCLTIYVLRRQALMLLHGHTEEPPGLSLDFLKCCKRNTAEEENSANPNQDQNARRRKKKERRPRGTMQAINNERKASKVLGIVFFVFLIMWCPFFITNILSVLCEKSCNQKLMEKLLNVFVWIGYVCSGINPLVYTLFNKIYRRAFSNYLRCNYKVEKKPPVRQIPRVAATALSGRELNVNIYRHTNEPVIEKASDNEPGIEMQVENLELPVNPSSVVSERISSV
The assay is described as follows: Binding to human 5HT2C receptor expressed in CHO cells. The class given is cell-based.

In assay [2] the target is T2, 5-hydroxytryptamine receptor 2C (Homo sapiens) (UniProt P28335).
T2 sequence (whole entry): T1 sequence (P28335 whole entry)
The assay can be described thus: Binding to human 5HT2C receptor expressed in CHO cells relative to 5HT. The class given is cell-based.

Assay [3] deals with T1, 5-hydroxytryptamine receptor 2C. The assay is described as follows: Displacement of [3H]5-HT from human 5HT2C.
Assay [4] has as its target T3, 5-hydroxytryptamine receptor 2A (Homo sapiens, UniProt P28223). The assay can be described thus: Binding to human 5HT2A receptor expressed in CHO cells. Format: cell-based.
The target of assay [5] is T4, 5-hydroxytryptamine receptor 2B (Homo sapiens, UniProt P41595). The assay can be described thus: Binding to human 5HT2B receptor expressed in CHO cells. Format: cell-based.
T4 sequence (P41595 whole entry): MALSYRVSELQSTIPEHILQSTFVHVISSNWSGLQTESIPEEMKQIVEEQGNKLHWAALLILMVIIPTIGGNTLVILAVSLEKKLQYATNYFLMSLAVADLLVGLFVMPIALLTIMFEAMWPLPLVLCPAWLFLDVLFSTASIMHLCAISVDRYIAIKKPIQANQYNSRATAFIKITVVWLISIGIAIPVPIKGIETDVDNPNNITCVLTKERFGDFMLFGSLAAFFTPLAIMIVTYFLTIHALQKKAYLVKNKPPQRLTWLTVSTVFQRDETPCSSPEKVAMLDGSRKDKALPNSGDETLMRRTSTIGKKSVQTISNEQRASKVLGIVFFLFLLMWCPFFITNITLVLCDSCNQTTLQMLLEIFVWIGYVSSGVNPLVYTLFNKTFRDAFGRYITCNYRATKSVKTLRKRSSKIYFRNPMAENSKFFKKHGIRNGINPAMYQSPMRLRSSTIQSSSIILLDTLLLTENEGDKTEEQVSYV
For assay [6], the target named is T3, 5-hydroxytryptamine receptor 2A. The assay can be described thus: Binding to human 5HT2A receptor expressed in CHO cells relative to 5HT. The class given is cell-based.
The target of assay [7] is T4, 5-hydroxytryptamine receptor 2B. The assay is described as follows: Displacement of [3H]5-HT from human 5HT2B.
Assay [8] shares this target. The assay can be described thus: Binding to human 5HT2B receptor expressed in CHO cells relative to 5HT. The class given is cell-based.
Assay [9] concerns the target T3, 5-hydroxytryptamine receptor 2A. The assay is described as follows: Displacement of [125I]DOI from human 5HT2A. For orientation: Loss of bound radioactivity is the signal in a displacement assay; it reports binding, not function.
Assay [10] relates to Rattus norvegicus. The assay is described as follows: Reduction in food intake in food-deprived rats after 4 hrs of administration of 3 mg/kg. Format: functional, organism-based. Also on record: dose 3 mg/kg.
For assay [11], the species on record is Rattus norvegicus. The assay can be described thus: Blocking of anorectic effect in rats pre-treated with SB-242084. The class given is functional, organism-based.

SMILES strings stand for the structures. The source made the active and inactive calls. The rule behind the calls is not given here.

T3 sequence (P28223 whole entry): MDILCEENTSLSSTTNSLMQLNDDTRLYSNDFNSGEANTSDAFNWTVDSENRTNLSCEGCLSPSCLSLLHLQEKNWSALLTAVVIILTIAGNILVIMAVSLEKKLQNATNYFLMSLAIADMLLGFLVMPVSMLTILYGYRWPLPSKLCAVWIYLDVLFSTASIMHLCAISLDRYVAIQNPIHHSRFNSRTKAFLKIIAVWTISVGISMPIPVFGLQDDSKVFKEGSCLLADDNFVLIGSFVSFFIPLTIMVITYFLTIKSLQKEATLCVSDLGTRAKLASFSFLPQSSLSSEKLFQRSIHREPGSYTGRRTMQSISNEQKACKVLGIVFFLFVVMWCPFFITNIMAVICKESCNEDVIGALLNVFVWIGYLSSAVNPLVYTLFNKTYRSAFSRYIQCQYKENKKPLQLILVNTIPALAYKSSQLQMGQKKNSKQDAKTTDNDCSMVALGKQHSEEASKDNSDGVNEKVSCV

Turning to `C[C@@H](Cn1ccc2ccc3ncccc3c21)NCc1ccc2c(c1)OCO2`, the half-maximal effective concentration (EC50) – broadly, the midpoint of the concentration-response curve – stood at 42 nM in assay [1], 359 nM in assay [4] and 20 nM in assay [5]. Besides, the Efficacy amounted to 98% in [2], 69% in assay [6] and 71% in assay [8]. Also, the figures for the inhibition constant (Ki) in assay [3], in [7] and in [9] were 16 nM, 138 nM and 398 nM, respectively.
For `C[C@@H](Cn1ccc2ccc3ncccc3c21)NCc1ccccc1Cl`, the EC50 was determined as 74 nM in assay [1], 638 nM in assay [4] and 44 nM in assay [5]. The Efficacy in assay [2] worked out at 95%; in [6] it was 58%; in [8], 72%. The values for the inhibitory constant (Ki) in assay [3], in [7] and in [9] were 39 nM, 380 nM and 674 nM, respectively.
In the case of `C[C@@H](Cn1ccc2ccc3ncccc3c21)NCC1CCCCC1`, the 50% effective concentration (EC50) in assay [1] was 348 nM; in assay [4], greater than 1000 nM; in [5] it was 128 nM. Moreover, the results for the Efficacy in assay [2], in assay [6] and in [8] were 88%, 32% and 67%, respectively. Further, the inhibition constant Ki (in general, the equilibrium dissociation constant of an inhibitor or competing ligand from its target) in [3] was 78 nM; in [7], 624 nM; in [9], 927 nM.
As for `C[C@H](N)Cn1ccc2ccc3cnccc3c21`, the concentration giving a half-maximal response (EC50) in assay [1] is 297 nM; in assay [4] it was greater than 1000 nM; in assay [5], 152 nM. Besides, the Efficacy in [2] turned out to be 93%; in assay [6], 63%; in assay [8], 70%. Moreover, the inhibition constant (Ki) was 72 nM in [3], 778 nM in [7] and 1040 nM in [9].
`C[C@H](N)Cn1ccc2cc(F)c(Cl)cc21`: the results for the Efficacy in assay [2], in assay [6] and in assay [8] were 93%, 72% and 71%, respectively.
On to `CCN[C@@H](C)Cc1cccc(C(F)(F)F)c1`, for which, in assay [10], the outcome was Active.
In the case of `Clc1cccc(N2CCNCC2)c1`, the Efficacy in assay [2] was determined as 83%; in assay [6], 41%; in assay [8] it was 33%.
For `C[C@H](N)Cn1ccc2ccc3ccncc3c21`, the EC50 was determined as 73 nM in [1], 473 nM in assay [4] and 62 nM in assay [5]. Also, the Efficacy in assay [2] is 98%; in [6] it was 67%; in assay [8], 67%. The Ki is 37 nM in assay [3], 210 nM in [7] and 230 nM in [9].
Regarding `C[C@@H](Cn1ccc2ccc3ncccc3c21)NCc1ccccc1`, the values for the half-maximal effective concentration (EC50) in assay [1], in assay [4] and in [5] were 200 nM, greater than 1000 nM and 97 nM, respectively. The results for the Efficacy in assay [2], in [6] and in assay [8] were 86%, 39% and 70%, respectively. The inhibitory constant (Ki) in [3] came to 77 nM; in assay [7], 515 nM; in [9], 842 nM.
For `C[C@H](N)Cn1ccc2ccc3ncccc3c21`, the EC50 in assay [1] was found to be 2.9 nM; in assay [4], 32 nM; in [5] it was 1.1 nM. Further, the outcome in [10] was Active. Besides, the Activity entry in assay [11] was “Dose-dependent effect”. Further, the Efficacy came out at 99% in assay [2], 88% in [6] and 65% in assay [8]. In addition, the Ki in assay [3] stood at 1.6 nM; in [9], 31 nM.
For the compound `C[C@H](N)Cn1ccc2cc(Cl)c3ncccc3c21`, the results for the EC50 in assay [1], in [4] and in assay [5] were 6.9 nM, 36 nM and 2.1 nM, respectively. Besides, the Efficacy in [2] was determined as 101%; in [6], 85%; in assay [8], 61%. Also, the inhibition constant (Ki) was determined as 2.4 nM in assay [3], 18 nM in [7] and 29 nM in assay [9].
The compound `NCCc1c[nH]c2ccc(O)cc12` had an Efficacy in assay [6] of 98%.
On to `C=CCN[C@@H](C)Cn1ccc2ccc3ncccc3c21`, for which the results for the EC50 in assay [1], in [4] and in [5] were 257 nM, 777 nM and 91 nM, respectively. The results for the Efficacy in assay [2], in assay [6] and in assay [8] were 92%, 54% and 70%, respectively. In addition, the results for the inhibition constant (Ki) in assay [3], in assay [7] and in assay [9] were 86 nM, 455 nM and 1160 nM, respectively.
Consider `COc1ccccc1CN[C@@H](C)Cn1ccc2ccc3ncccc3c21`, for which the figures for the EC50 in [1], in [4] and in assay [5] were 551 nM, greater than 1000 nM and 462 nM, respectively. Besides, the Efficacy in assay [2] worked out at 77%; in assay [6] it was 24%; in assay [8], 41%. Also, the results for the inhibition constant Ki in assay [3], in [7] and in [9] were 168 nM, 883 nM and 1570 nM, respectively.
On to `C[C@@H](Cn1ccc2ccc3ncccc3c21)NCc1ccc2ccccc2c1`, for which the concentration for a half-maximal effect (EC50) stood at 52 nM in assay [1], 222 nM in [4] and 27 nM in assay [5]. Also, the Efficacy in assay [2] is 99%; in [6] it was 56%; in assay [8] it was 76%. Also, the Ki in [3] turned out to be 16 nM; in assay [7] it was 136 nM; in assay [9], 181 nM.
As for `C[C@H](N)Cn1ccc2ccc3cccnc3c21`, the concentration for a half-maximal effect (EC50) in assay [1] was 97 nM; in assay [4] it was 446 nM; in assay [5] it was 45 nM. The figures for the Efficacy in assay [2], in assay [6] and in assay [8] were 39%, 41% and 60%, respectively. For the same compound, the inhibition constant (Ki) in assay [3] was found to be 27 nM; in [7] it was 115 nM; in [9], 229 nM.
`Cc1ccccc1CN[C@@H](C)Cn1ccc2ccc3ncccc3c21`: the EC50 in [1] is 219 nM; in assay [4], greater than 1000 nM; in assay [5], 128 nM. Further, the Efficacy in assay [2] was found to be 87%; in [6], 49%; in assay [8], 64%. The Ki in [3] amounted to 171 nM; in assay [7] it was 739 nM; in [9] it was 1680 nM.
